Columns and labels:
Format in all cases: biochemical
[1] = molecular target: T1, GST-PLK3 (Homo sapiens, UniProt Q9H4B4); assay: PLK TR-FRET peptide assay, PLK3; settings: PLK TR-FRET peptide assay, GST-PLK3; read-out: Plk3 IC50
T1 construct: purchased CarnaBio

[2] = molecular target: T2, GST-PLK2 (Homo sapiens, UniProt Q9NYY3); assay: PLK TR-FRET peptide assay, PLK2; settings: for IC50: PLK TR-FRET peptide assay, GST-PLK2, read-out: Plk2 IC50; for PLK2 activity relative to the opposite enantiomer / other isomer: comparison of resolved enantiomers, used to assign absolute configuration
T2 construct: purchased CarnaBio

[3] = molecular target: GST-PLK1 (Homo sapiens, UniProt P53350); assay: PLK TR-FRET peptide assay, PLK1; settings: read-out: Plk1 IC50
Sequence of GST-PLK1 (P53350 whole entry): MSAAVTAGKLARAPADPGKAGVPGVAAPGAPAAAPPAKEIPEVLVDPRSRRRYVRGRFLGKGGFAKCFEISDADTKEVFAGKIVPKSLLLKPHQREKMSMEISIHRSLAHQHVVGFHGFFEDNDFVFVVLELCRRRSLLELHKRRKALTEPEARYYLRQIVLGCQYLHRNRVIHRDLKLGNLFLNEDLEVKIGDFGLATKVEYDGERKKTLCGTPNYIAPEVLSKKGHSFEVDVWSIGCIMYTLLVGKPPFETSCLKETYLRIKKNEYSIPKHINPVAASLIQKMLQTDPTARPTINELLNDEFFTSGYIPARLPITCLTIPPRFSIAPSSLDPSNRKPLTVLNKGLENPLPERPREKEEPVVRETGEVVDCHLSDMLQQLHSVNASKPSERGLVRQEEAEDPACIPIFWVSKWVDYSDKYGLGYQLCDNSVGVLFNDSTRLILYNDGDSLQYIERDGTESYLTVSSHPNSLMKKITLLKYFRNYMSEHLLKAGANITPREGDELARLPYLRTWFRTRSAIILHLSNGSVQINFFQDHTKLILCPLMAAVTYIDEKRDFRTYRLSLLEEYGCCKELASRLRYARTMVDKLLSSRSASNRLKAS

T2 sequence (Q9NYY3 whole entry): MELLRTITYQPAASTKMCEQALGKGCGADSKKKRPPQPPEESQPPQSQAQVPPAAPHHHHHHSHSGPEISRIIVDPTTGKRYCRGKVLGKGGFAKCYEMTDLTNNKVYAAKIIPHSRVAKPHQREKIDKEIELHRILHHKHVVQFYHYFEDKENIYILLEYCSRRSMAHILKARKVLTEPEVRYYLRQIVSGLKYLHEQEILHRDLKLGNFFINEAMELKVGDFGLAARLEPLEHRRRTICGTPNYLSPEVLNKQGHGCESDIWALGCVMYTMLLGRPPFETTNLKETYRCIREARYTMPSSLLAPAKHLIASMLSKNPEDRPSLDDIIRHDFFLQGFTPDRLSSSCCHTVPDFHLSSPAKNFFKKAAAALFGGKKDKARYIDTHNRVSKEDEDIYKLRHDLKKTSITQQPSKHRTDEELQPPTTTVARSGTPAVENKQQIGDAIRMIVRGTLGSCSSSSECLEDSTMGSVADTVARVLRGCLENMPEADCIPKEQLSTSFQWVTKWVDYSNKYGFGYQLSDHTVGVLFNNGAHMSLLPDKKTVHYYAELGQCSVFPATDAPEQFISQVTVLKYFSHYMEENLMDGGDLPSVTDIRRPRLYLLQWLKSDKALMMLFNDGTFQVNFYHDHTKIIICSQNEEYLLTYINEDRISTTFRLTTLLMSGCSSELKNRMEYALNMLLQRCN
T1 sequence (Q9H4B4 whole entry): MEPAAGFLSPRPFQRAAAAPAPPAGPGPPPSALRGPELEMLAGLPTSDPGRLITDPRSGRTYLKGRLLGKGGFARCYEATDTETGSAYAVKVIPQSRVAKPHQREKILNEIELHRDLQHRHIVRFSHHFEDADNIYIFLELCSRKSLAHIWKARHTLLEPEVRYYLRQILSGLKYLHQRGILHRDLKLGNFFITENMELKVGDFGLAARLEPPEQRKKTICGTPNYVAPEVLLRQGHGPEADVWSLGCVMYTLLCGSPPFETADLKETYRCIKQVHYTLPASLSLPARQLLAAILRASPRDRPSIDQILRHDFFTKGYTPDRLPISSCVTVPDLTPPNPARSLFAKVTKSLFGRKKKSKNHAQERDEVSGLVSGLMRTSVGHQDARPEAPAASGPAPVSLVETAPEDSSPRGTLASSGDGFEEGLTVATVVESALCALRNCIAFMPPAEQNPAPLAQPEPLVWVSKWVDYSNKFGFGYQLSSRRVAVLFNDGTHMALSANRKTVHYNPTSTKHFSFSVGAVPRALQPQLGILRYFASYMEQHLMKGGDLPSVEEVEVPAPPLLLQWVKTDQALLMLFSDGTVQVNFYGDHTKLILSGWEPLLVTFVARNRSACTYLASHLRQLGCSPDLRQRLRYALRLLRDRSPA

Row | Structure (SMILES) | IC50 [1] [µM] | IC50 [2] [µM] | IC50 [3] [µM] | PLK2 activity relative to the opposite enantiomer / other isomer [2]
1 | CCOC(=O)c1cnn(-c2ncc3c(n2)N(C2CCCC2)[C@H](CC)C(=O)N3C)c1 [Example 18, (R)-ethyl 1-(8-cyclopentyl-7-ethyl-5-methyl-6-oxo-5,6,7,8-tetrahydropteridin-2-yl)-1H-pyrazole-4-carboxylate] | 10 to 50 | 1 to 10 | < 1 | 
2 | CC[C@@H]1C(=O)N(C)c2cnc(-n3cnc(C)c3)nc2N1C1CCCC1 [Example 55, (R)-8-cyclopentyl-7-ethyl-5-methyl-2-(4-methyl-1H-imidazol-1-yl)-7,8-dihydropteridin-6(5H)-one] | 10 to 50 | < 1 | < 1 | 
3 | CN1C(=O)C23CCC(CC2)N3c2nc(-n3ccnc3-c3ccccc3)ncc21 [Example 308, 5-methyl-2-(2-phenyl-1H-imidazol-1-yl)-8,9-dihydro-7H-6a,9-ethanopyrrolo[2,1-h]pteridin-6(5H)-one] | > 50 | 1 to 10 | 10 to 50 | 
4 | CC[C@@H]1C(=O)N(C)c2cnc(-n3cc(C(=O)N4CCOCC4)cn3)nc2N1C1CCCC1 [Example 41, (R)-8-cyclopentyl-7-ethyl-5-methyl-2-(4-(morpholine-4-carbonyl)-1H-pyrazol-1-yl)-7,8-dihydropteridin-6(5H)-one] | 10 to 50 | 1 to 10 | 1 to 10 | 
5 | CC[C@@H]1C(=O)N(C)c2cnc(-n3cc(C(=O)N(C)C)cn3)nc2N1C1CCCC1 [Example 39, (R)-1-(8-cyclopentyl-7-ethyl-5-methyl-6-oxo-5,6,7,8-tetrahydropteridin-2-yl)-N,N-dimethyl-1H-pyrazole-4-carboxamide] | 10 to 50 | 1 to 10 | 1 to 10 | 
6 | CC[C@]12COCCN1c1nc(-c3snnc3-c3ccccc3)ncc1N(C)C2=O [Example 369, (R)-6a-ethyl-5-methyl-2-(4-phenyl-1,2,3-thiadiazol-5-yl)-6a,7,9,10-tetrahydro-[1,4]oxazino[3,4-h]pteridin-6(5H)-one] | > 50 | > 50 | > 50 | 
7 | CC[C@@]12COCCN1c1nc(-c3snnc3-c3ccc(F)cc3F)ncc1N(C)C2=O [Example 397, (S)-2-(4-(2,4-difluorophenyl)-1,2,3-thiadiazol-5-yl)-6a-ethyl-5-methyl-6a,7,9,10-tetrahydro-[1,4]oxazino[3,4-h]pteridin-6(5H)-one] | 10 to 50 | < 1 | 10 to 50 | more active compound
8 | CC[C@@H]1C(=O)N(C)c2cnc(-c3sc(N)nc3-c3ccc(F)cc3)nc2N1C(C)C [Example 318, (R)-2-(2-amino-4-(4-fluorophenyl)thiazol-5-yl)-7-ethyl-8-isopropyl-5-methyl-7,8-dihydropteridin-6(5H)-one] | < 1 | < 1 | < 1 | 
9 | CC[C@@H]1C(=O)N(C)c2cnc(-c3ccn(C)c(=O)c3)nc2N1C1CCCC1 [Example 19, (R)-8-cyclopentyl-7-ethyl-5-methyl-2-(1-methyl-2-oxo-1,2-dihydropyridin-4-yl)-7,8-dihydropteridin-6(5H)-one] | 10 to 50 | < 1 | < 1 | 
10 | CC[C@]12COCCN1c1nc(-c3cn[nH]c3-c3nccs3)ncc1N(C)C2=O [Example 345, (R)-6a-ethyl-5-methyl-2-(5-(thiazol-2-yl)-1H-pyrazol-4-yl)-6a,7,9,10-tetrahydro-[1,4]oxazino[3,4-h]pteridin-6(5H)-one] | > 50 | 10 to 50 | > 50 | 
11 | CC[C@@H]1C(=O)N(C)c2cnc(-n3cnc(CCN)c3)nc2N1C1CCCC1 [Example 62, (R)-2-(4-(2-aminoethyl)-1H-imidazol-1-yl)-8-cyclopentyl-7-ethyl-5-methyl-7,8-dihydropteridin-6(5H)-one] | 10 to 50 | < 1 | 10 to 50 | 
12 | CC[C@@H]1C(=O)N(C)c2cnc(-c3cnsc3-c3ccc(F)cc3)nc2N1C(C)C [Example 296, (R)-7-ethyl-2-(5-(4-fluorophenyl)isothiazol-4-yl)-8-isopropyl-5-methyl-7,8-dihydropteridin-6(5H)-one] | 1 to 10 | < 1 | < 1 | 
13 | CC[C@@H]1C(=O)N(C)c2cnc(-n3cc(C(=O)O)cn3)nc2N1C1CCCC1 [Example 44, (R)-1-(8-cyclopentyl-7-ethyl-5-methyl-6-oxo-5,6,7,8-tetrahydropteridin-2-yl)-1H-pyrazole-4-carboxylic acid] | 1 to 10 | 1 to 10 | < 1 | 
14 | CC[C@@H]1C(=O)N(C)c2cnc(-n3ccc(C(=O)NC)n3)nc2N1C1CCCC1 [Example 58, (R)-1-(8-cyclopentyl-7-ethyl-5-methyl-6-oxo-5,6,7,8-tetrahydropteridin-2-yl)-N-methyl-1H-pyrazole-3-carboxamide] | > 50 | < 1 | 1 to 10 | 
15 | CCC12COCCN1c1nc(-c3cn[nH]c3-c3ccc(F)cc3F)ncc1N(C)C2=O (racemic) [Example 405, 2-(5-(2,4-difluorophenyl)-1H-pyrazol-4-yl)-6a-ethyl-5-methyl-6a,7,9,10-tetrahydro-[1,4]oxazino[3,4-h]pteridin-6(5H)-one] | 1 to 10 | < 1 | 10 to 50 | 
16 | CC[C@@H]1C(=O)N(C)c2cnc(-n3ccc(=N)cc3)nc2N1C1CCCC1 [Example 73, (R)-8-cyclopentyl-7-ethyl-2-(4-iminopyridin-1(4H)-yl)-5-methyl-7,8-dihydropteridin-6(5H)-one] | > 50 | 1 to 10 | 10 to 50 | 

Other lines, results leading:

Row | IC50 [1] [µM] | IC50 [2] [µM] | IC50 [3] [µM] | PLK2 activity relative to the opposite enantiomer / other isomer [2] | Structure (SMILES)
17 | > 50 | 10 to 50 | > 50 |  | CC[C@]12COCCN1c1nc(-n3ccnc3-c3ccc(F)cc3F)ncc1N(C)C2=O [Example 377, (R)-2-(2-(2,4-difluorophenyl)-1H-imidazol-1-yl)-6a-ethyl-5-methyl-6a,7,9,10-tetrahydro-[1,4]oxazino[3,4-h]pteridin-6(5H)-one]
18 | < 1 | < 1 | < 1 |  | CC[C@@H]1C(=O)N(C)c2cnc(-c3ccncc3-c3ccccc3)nc2N1C(C)C [Example 110, (R)-7-ethyl-8-isopropyl-5-methyl-2-(3-phenylpyridin-4-yl)-7,8-dihydropteridin-6(5H)-one]
19 | 1 to 10 | < 1 | 1 to 10 | more active compound | CC[C@@]12COCCN1c1nc(-c3ccncc3-c3ccccc3)ncc1N(C)C2=O [Example 394, (S)-6a-ethyl-5-methyl-2-(3-phenylpyridin-4-yl)-6a,7,9,10-tetrahydro-[1,4]oxazino[3,4-h]pteridin-6(5H)-one]
20 | > 50 | 1 to 10 | > 50 |  | CC[C@H]1C(=O)N(C)c2cnc(-n3ccnc3-c3ccc(F)cc3)nc2N1c1ccn(C)n1 [Example 408, (S)-7-ethyl-2-(2-(4-fluorophenyl)-1H-imidazol-1-yl)-5-methyl-8-(1-methyl-1H-pyrazol-3-yl)-7,8-dihydropteridin-6(5H)-one]
21 | < 1 | < 1 | < 1 |  | CC[C@@H]1C(=O)N(C)c2cnc(-c3cn[nH]c3-c3ccccc3)nc2N1C1CCCC1 [Example 134, (R)-8-cyclopentyl-7-ethyl-5-methyl-2-(5-phenyl-1H-pyrazol-4-yl)-7,8-dihydropteridin-6(5H)-one]
22 | 10 to 50 | < 1 | < 1 |  | CCC1C(=O)N(C)c2cnc(-n3ccnc3-c3ccccc3)nc2N1N1CCCC1 (stereo not drawn) [Example 280, 7-ethyl-5-methyl-2-(2-phenyl-1H-imidazol-1-yl)-8-(pyrrolidin-1-yl)-7,8-dihydropteridin-6(5H)-one]
23 | < 1 | < 1 | < 1 |  | CC[C@@H]1C(=O)N(C)c2cnc(-n3ccnc3-c3cn[nH]c3)nc2N1C1CCCC1 [Example 97, (R)-2-(2-(1H-pyrazol-4-yl)-1H-imidazol-1-yl)-8-cyclopentyl-7-ethyl-5-methyl-7,8-dihydropteridin-6(5H)-one]
24 | 1 to 10 | < 1 | 10 to 50 |  | CCC12COCCN1c1nc(-n3ccnc3-c3ccccc3)ncc1N(C)C2=O (racemic) [Example 317, 6a-ethyl-5-methyl-2-(2-phenyl-1H-imidazol-1-yl)-6a,7,9,10-tetrahydro-[1,4]oxazino[3,4-h]pteridin-6(5H)-one]
25 | 10 to 50 | < 1 | > 50 | more active compound | CC[C@@]12CN(C)CCN1c1nc(-n3ccnc3-c3ccccc3)ncc1N(C)C2=O [Example 374, (S)-6a-ethyl-5,8-dimethyl-2-(2-phenyl-1H-imidazol-1-yl)-'7,8,9,10-tetrahydro-5H-pyrazino[2,1-h]pteridin-6(6aH)-one]
26 | < 1 | < 1 | < 1 |  | CC[C@@H]1C(=O)N(C)c2cnc(-n3ncnc3-c3ccccc3)nc2N1C1CCCC1 [Example 135, (R)-8-cyclopentyl-7-ethyl-5-methyl-2-(5-phenyl-1H-1,2,4-triazol-1-yl)-7,8-dihydropteridin-6(5H)-one]
27 | > 50 | > 50 | > 50 |  | CC[C@]12COCCN1c1nc(-n3ccnc3-c3nccs3)ncc1N(C)C2=O [Example 386, (R)-6a-ethyl-5-methyl-2-(2-(thiazol-2-yl)-1H-imidazol-1-yl)-6a,7,9,10-tetrahydro-[1,4]oxazino[3,4-h]pteridin-6(5H)-one]
28 | > 50 | > 50 | > 50 |  | CCC1C(=O)Nc2cnc(-n3ccnc3-c3ccccc3)nc2N1NC(=O)OC(C)(C)C (stereo not drawn) [Example 274, tert-Butyl 7-ethyl-6-oxo-2-(2-phenyl-1H-imidazol-1-yl)-6,7-dihydropteridin-8(5H)-ylcarbamate]
29 | > 50 | > 50 | > 50 |  | CC[C@]12COCCN1c1nc(-c3cccnc3-c3ccccc3)ncc1N(C)C2=O [Example 404]

Reference: patent US8445503B2, “Inhibitors of polo-like kinase” (Elan Pharmaceuticals, Inc., priority 2009, dated 2013)
